In PubChem BioAssay (NCI) one finds TGI and GI50 data, which are given here for 11 compounds.

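Values below derive from 48-hour exposures of cells grown in 96-well plates, with endpoints linearly interpolated between the two concentrations bracketing the appropriate inhibition level. GI50: concentration for 50% inhibition of growth. TGI marks complete inhibition of growth.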 A value given as a limit tells only on which side of the number the result lay.

Some test systems named below: A498 renal; HOP-92 NSCLC; RPMI-8226 leukemia; HCT-116 colon; NCI-H522 lung; LOX IMVI melanoma; UACC-62 melanoma; HL-60(TB) leukemia; NCI-H226 lung; NCI/ADR-RES ovarian.
What all share (test): DTP human tumour cell line panel, 48 h

The TGI is the concentration at which net growth stops. The term GI50 denotes the concentration that inhibits growth by half.

`O=C(c1ccccc1)n1cc(/C=C/[N+](=O)[O-])c2ccccc21`: the TGI in the assay with A498 renal is above 100 µM; in the assay on HOP-92 NSCLC, 54.1 µM; with RPMI-8226 leukemia, 39.9 µM; in the assay on HCT-116 colon, 32 µM; in the assay with NCI-H522 lung, 28.8 µM; with LOX IMVI melanoma, 29.8 µM. Besides, the total growth inhibition concentration (TGI) worked out at 36.9 µM in the assay on UACC-62 melanoma and 13.3 µM with HL-60(TB) leukemia.

Consider `O=c1cccccc1[O-].O=c1cccccc1[O-].O=c1cccccc1[O-].[Nd+3]`, for which, in the assay with A498 renal, the GI50 is 81.4 µM. Besides, the TGI in the assay with A498 renal is above 100 µM; in the assay on HOP-92 NSCLC, above 100 µM; with RPMI-8226 leukemia, above 100 µM; with HCT-116 colon it was 68.4 µM; with NCI-H522 lung, 74.4 µM; with NCI-H226 lung, above 100 µM. In addition, the TGI was above 100 µM with LOX IMVI melanoma, 88 µM in the assay with UACC-62 melanoma and above 100 µM in the assay with HL-60(TB) leukemia.

Turning to `CC1(C)CC[C@]23CC[C@]4(C)[C@H](CC[C@@H]5[C@@]6(C)CCCNC(C)(C)[C@@H]6CC[C@]54C)[C@H]2[C@H]1OC3`, the GI50 was 1.68 µM in the assay with A498 renal; 1.94 µM in the assay on RPMI-8226 leukemia; 1.52 µM in the assay on HCT-116 colon; 1.9 µM with NCI-H522 lung; 1.7 µM with NCI-H226 lung; 1.79 µM with UACC-62 melanoma. Besides, the total growth inhibition concentration (TGI) with A498 renal was determined as 3.67 µM; in the assay on RPMI-8226 leukemia, 4.58 µM; in the assay with HCT-116 colon, 2.88 µM; with NCI-H522 lung, 3.77 µM; in the assay on NCI-H226 lung, 3.47 µM; in the assay on UACC-62 melanoma it was 3.21 µM.

In the case of `Cc1ccc2ncnc(N(C)C3CCCCC3)c2c1`, the GI50 is 77.1 µM in the assay with A498 renal; 14.6 µM with HOP-92 NSCLC; 19.1 µM in the assay on NCI/ADR-RES ovarian; 6.11 µM with RPMI-8226 leukemia; 36.7 µM with HCT-116 colon; 39 µM in the assay with NCI-H522 lung. Besides, the GI50 in the assay with NCI-H226 lung is 18.7 µM; with LOX IMVI melanoma it was 21.7 µM; in the assay with UACC-62 melanoma it was 31.9 µM. Further, the TGI with A498 renal was above 100 µM; in the assay on HOP-92 NSCLC, 42.7 µM; in the assay on NCI/ADR-RES ovarian it was 53 µM; in the assay on RPMI-8226 leukemia, 28.7 µM; in the assay with HCT-116 colon it was above 100 µM; with NCI-H522 lung, above 100 µM. For the same compound, the results for the TGI with NCI-H226 lung, with LOX IMVI melanoma and with UACC-62 melanoma were 58.4 µM, 68.3 µM and above 100 µM, respectively.

In the case of `CCCCCc1cc(/C=C2/N=C(c3ccc[nH]3)C=C2OC)[nH]c1C`, the TGI in the assay on A498 renal is 0.959 µM; in the assay on HOP-92 NSCLC, 0.0213 µM; in the assay on NCI/ADR-RES ovarian, 1.14 µM; with HCT-116 colon it was below 0.0387 µM; in the assay on NCI-H522 lung it was 0.209 µM; in the assay with NCI-H226 lung, 1.79 µM. This compound also yielded a TGI in the assay with UACC-62 melanoma of 0.03 µM.

As for `CCN1CCN(Cc2ccc(NC(=O)Nc3nc(-c4cc(OC)c(OC)c(OC)c4)cs3)cc2C(F)(F)F)CC1`, the GI50 in the assay on A498 renal was 1.96 µM; in the assay on HOP-92 NSCLC it was 1.23 µM; with RPMI-8226 leukemia, 1.63 µM; with HCT-116 colon, 1.48 µM; with NCI-H522 lung, 1.65 µM; with NCI-H226 lung, 1.68 µM. Moreover, the GI50 was 2.18 µM in the assay on LOX IMVI melanoma, 1.68 µM with UACC-62 melanoma and 1.94 µM with HL-60(TB) leukemia. Further, the TGI was 5.48 µM in the assay with A498 renal; 4.23 µM in the assay on HOP-92 NSCLC; 4.24 µM in the assay on RPMI-8226 leukemia; 2.84 µM in the assay with HCT-116 colon; 3.13 µM in the assay on NCI-H522 lung; 3.82 µM in the assay with NCI-H226 lung. The TGI in the assay with LOX IMVI melanoma came to 7.14 µM; in the assay with UACC-62 melanoma it was 3.18 µM; with HL-60(TB) leukemia it was 4.25 µM.

Take `Cc1ccc(NC(=S)NNC(=S)Nc2ccc(C)cc2)cc1`: the GI50 in the assay on A498 renal was 2.96 µM; in the assay on HOP-92 NSCLC it was 6.43 µM; in the assay with NCI/ADR-RES ovarian it was 2.55 µM; in the assay on RPMI-8226 leukemia, 4.46 µM; in the assay with HCT-116 colon, 3.81 µM; in the assay with NCI-H522 lung, 2.03 µM. Besides, the GI50 is above 100 µM in the assay on NCI-H226 lung, 6.13 µM with LOX IMVI melanoma and 5.17 µM in the assay on UACC-62 melanoma. In addition, the TGI in the assay on A498 renal is above 100 µM; in the assay on HOP-92 NSCLC it was above 100 µM; in the assay with NCI/ADR-RES ovarian, 8.52 µM; with RPMI-8226 leukemia it was 65.3 µM; in the assay on HCT-116 colon it was above 100 µM; with NCI-H522 lung, 5.83 µM. Moreover, the TGI with NCI-H226 lung, in the assay with LOX IMVI melanoma and with UACC-62 melanoma was above 100 µM in each case.

On to `Cc1ccccc1N(CCC#N)C1=NN(C(=O)CC(=O)Nc2ccc(Cl)cc2)C(c2ccccc2)C1` (configuration not stated), for which the TGI in the assay on HOP-92 NSCLC, in the assay with RPMI-8226 leukemia, with HCT-116 colon, in the assay on NCI-H522 lung, with NCI-H226 lung and in the assay with UACC-62 melanoma was above 100 µM in each case. In the assay with HL-60(TB) leukemia, the TGI was above 100 µM.

Regarding `COc1ccc(N=Nc2ccc(O)c(=O)cc2)cc1`, the GI50 in the assay with A498 renal is 24.1 µM; with HOP-92 NSCLC it was 2.66 µM; in the assay with RPMI-8226 leukemia, 2.68 µM; in the assay on HCT-116 colon, 2.58 µM; in the assay with NCI-H522 lung it was 2.88 µM; with NCI-H226 lung, 3.73 µM. The GI50 in the assay with LOX IMVI melanoma was 2.44 µM; in the assay with UACC-62 melanoma, 2.11 µM; in the assay with HL-60(TB) leukemia it was 3.55 µM. Besides, the TGI with A498 renal was above 100 µM; in the assay with HOP-92 NSCLC, above 100 µM; in the assay with RPMI-8226 leukemia, 43.7 µM; in the assay on HCT-116 colon, 15.4 µM; in the assay on NCI-H522 lung, 13.4 µM; with NCI-H226 lung, above 100 µM. Also, the TGI was 27 µM in the assay with LOX IMVI melanoma, 5.12 µM in the assay on UACC-62 melanoma and above 100 µM in the assay on HL-60(TB) leukemia.

In the case of `CC(=O)Oc1ccc2c(=O)c(C(C)=O)coc2c1`, the TGI with A498 renal, in the assay on HOP-92 NSCLC, with RPMI-8226 leukemia, in the assay on HCT-116 colon, in the assay with NCI-H522 lung and in the assay with NCI-H226 lung was above 100 µM in each case. For the same compound, the TGI with LOX IMVI melanoma and in the assay with HL-60(TB) leukemia was above 100 µM throughout.

In the case of `COC(=O)C1C(C(=O)O)C2(c3ccccc3)C(=O)C1(c1ccccc1)C(c1ccc(OC)cc1)=C2c1ccc(OC)cc1` (configuration not stated), the GI50 with A498 renal was 23.2 µM; in the assay with HOP-92 NSCLC, 4.87 µM; with NCI/ADR-RES ovarian, 20.6 µM; with RPMI-8226 leukemia, 18.2 µM; in the assay on HCT-116 colon, 17.3 µM; with NCI-H522 lung, 17 µM. The GI50 is 21.9 µM in the assay with NCI-H226 lung, 33.2 µM with LOX IMVI melanoma and 18.8 µM with UACC-62 melanoma. For the same compound, the TGI was determined as 46.2 µM in the assay with A498 renal; 28.4 µM in the assay with HOP-92 NSCLC; 43.6 µM in the assay on NCI/ADR-RES ovarian; 48.5 µM in the assay with RPMI-8226 leukemia; 33.6 µM in the assay with HCT-116 colon; 41.9 µM in the assay on NCI-H522 lung. In addition, the TGI in the assay with NCI-H226 lung is 55.6 µM; in the assay with LOX IMVI melanoma, above 100 µM; with UACC-62 melanoma, 35.2 µM.
